This note sets out measurements from paper PMC6661759 (BMC Chemistry, 2019).

For test [1], the system named is H. pylori bacterium (DSM 4867). The test is described as follows: Anti-H. pylori activity, well diffusion technique. It is filed as cell-based, Helicobacter pylori. Particulars: H. pylori DSM 4867, 2500 µg per well, 24–48 h. As for the experimental part: (§1) Derivatives C4a, C4b and C4d which were found best in urease inhibition and antioxidant activity as well as in terms of docking score were tested further against antibacterial efficiency against Helicobacter pylori DSM 4867 using AHA as a standard and DMSO as control. […] In-vitro results concluded that compound C4a bearing nitro and chloro group at 2nd and 4th position indicated excellent antibacterial action against H. Pylori probably by interacting with the target protein efficiently and inhibited the growth of pathogenic bacteria.
(§2) Since H. Pylori is not acidophilic in nature therefore it requires urease, which produced ammonia by hydrolyzing urea present in stomach, for its survival in acidic gastric medium. Because of virulence nature of urease researchers decided to target its inhibition for anti-H. Pylori drugs. Novel synthesized derivatives were investigated against H. pylori bacterium (DSM 4867, AHA as standard) for their antibacterial activity by using Well diffusion technique. The stock solution of compounds in DMSO (1000 μg/mL) were prepared. Cell suspension was prepared from culture grown on BHI broth. The cell suspensions of all the cultures were adjusted to 1–2 × 10^5 cells/mL. Helicobacter pylori (100 µL) was inoculated by spread plate technique on agar plates (90 mm). […] MIC was determined against Helicobacter pylori by micro broth dilution technique as per NCCLS method.

In test [2] the test system is Helicobacter pylori DSM 4867. The test can be described thus: MIC against Helicobacter pylori by micro broth dilution technique. Particulars: H. pylori DSM 4867, micro broth dilution. Format: cell-based. The protocol:
as §1, §2
On the technique in general: In broth dilution the organism is exposed to a series of concentrations in liquid medium.

Test [3] can be described thus: DPPH assay for antioxidant activity. Conditions: DPPH free radical scavenging, mean SEM. As for the experimental part: (§3) As structure of urease from different sources has common structural features therefore urease inhibition studies were carried out on jack bean urease. Inhibition studies were carried out by indophenol technique described by Weatherburn in which measurement of concentration of ammonia released during the reaction between reagents and compounds were done.
Antioxidant nature of the synthesized derivatives was measured by the help of DPPH method. According to this method synthesized compounds were allowed to react for 0.5 h at 37 °C with stable free radical, 1, 1-diphenyl-2-picrylhydrazyl radical (DPPH). The DPPH was taken in a concentration of 300 µM. Decrease in value of absorption at 515 nm was measured after the period of incubation using a microplate reader using ascorbic acid as a standard. Molecule capable of donating proton to DPPH and cause its reduction acts as an antioxidant. Following reduction deep violet coloured DPPH solution changes to yellow depending upon the nature of antioxidant compound, which brings a measurable decrease in value of absorption at 517 nm. The proton or electron donating capacity of the derivative was estimated from the fading of deep purple colored methanolic solution of 1, 1-diphenylpicrylhydrazyl (DPPH). Incubation of mixture was done at room temperature for 30 min and measurements were done at 517 nm against blank. Calculation of percentage inhibition was done by following formula: I\%=AControl-ASample/AControl×100 where, Acontrol is control absorbance; Asample is test absorbance.
For orientation: The DPPH test is a chemical assay of radical scavenging.

Test [4] has as its target T1, Jack Bean Urease (Canavalia ensiformis, UniProt P07374).
T1 construct: purchased Sigma Aldrich
The test can be described thus: Enzyme kinetics, Lineweaver-Burk plot. It is filed as biochemical. Particulars: varying urea, phosphate buffer, 1 mM EDTA, pH 8.2. The protocol:
Study of inhibitory effect of chlorogenic derivatives on jack bean urease was performed to check the inhibitory potential, kinetics studies and mechanism of inhibition in phosphate buffer and 1 mM EDTA at pH 8.2. […] Competitive inhibition infers that compound C4a will probably compete for binding at the site of substrate in enzyme active site pocket.
(substrate concentration) against 1/[V] velocity. To examine the mode of inhibition compound C4a was solubilized in DMSO and further dilutions were prepared accordingly. Plot was prepared by using varying concentration of substrate (urea) in with varying concentration of inhibitor C4a. Inhibitory constant values (Ki) were determined as the interaction on the X-axis of the plots of the slope against different concentration of derivatives C4a. […] All experiments were performed in triplicate and kinetic study for interaction of enzyme with inhibitor was computed with Graphpad prism 7.0 software.

Test [5] concerns the target T1, Jack Bean Urease. The test can be described thus: biochemical. As for the experimental part:
as §3
Urease enzyme inhibition investigation studies for all synthesized compounds were done by the method developed by Weatherburn (1967) named Indophenol against Jack Bean Urease. Briefly, incubation of solution of Jack bean protein 25 μL was done at temperature of 30 °C for a period of 15 min with 55 μL of buffers solution having 100 mM urea and 5 μL of test solution in 96-well plates. 45 μL phenol solution composing phenol 1% w/v and solution of sodium nitroprusside 0.005% w/v and alkali reagent 70 μL composed of sodium hydroxide 0.5% w/v and active sodium hypochloride solution 0.1% were mixed to every well. The measurement of increase in absorption at 625 nm was done after 50 min by help of a microplate reader (Molecular Device, USA). Readings were recorded in triplicate set in a final volume of 200 μL using thiourea as standard. Each assay was performed at pH 8.2 (0.01 M K2HPO4.3H2O, 0.01 M […] and 1 mM EDTA). Calculation of Inhibition in percentage of synthesized derivatives was done by the formula given as: I\%=AControl-ASample/AControl×100 where, Acontrol is control absorbance; Asample is test absorbance.

In brackets after ≈: the same amount, converted by molar mass. Where two headings read alike, the source gives them in different places.

T1 sequence (P07374 whole entry, looked up): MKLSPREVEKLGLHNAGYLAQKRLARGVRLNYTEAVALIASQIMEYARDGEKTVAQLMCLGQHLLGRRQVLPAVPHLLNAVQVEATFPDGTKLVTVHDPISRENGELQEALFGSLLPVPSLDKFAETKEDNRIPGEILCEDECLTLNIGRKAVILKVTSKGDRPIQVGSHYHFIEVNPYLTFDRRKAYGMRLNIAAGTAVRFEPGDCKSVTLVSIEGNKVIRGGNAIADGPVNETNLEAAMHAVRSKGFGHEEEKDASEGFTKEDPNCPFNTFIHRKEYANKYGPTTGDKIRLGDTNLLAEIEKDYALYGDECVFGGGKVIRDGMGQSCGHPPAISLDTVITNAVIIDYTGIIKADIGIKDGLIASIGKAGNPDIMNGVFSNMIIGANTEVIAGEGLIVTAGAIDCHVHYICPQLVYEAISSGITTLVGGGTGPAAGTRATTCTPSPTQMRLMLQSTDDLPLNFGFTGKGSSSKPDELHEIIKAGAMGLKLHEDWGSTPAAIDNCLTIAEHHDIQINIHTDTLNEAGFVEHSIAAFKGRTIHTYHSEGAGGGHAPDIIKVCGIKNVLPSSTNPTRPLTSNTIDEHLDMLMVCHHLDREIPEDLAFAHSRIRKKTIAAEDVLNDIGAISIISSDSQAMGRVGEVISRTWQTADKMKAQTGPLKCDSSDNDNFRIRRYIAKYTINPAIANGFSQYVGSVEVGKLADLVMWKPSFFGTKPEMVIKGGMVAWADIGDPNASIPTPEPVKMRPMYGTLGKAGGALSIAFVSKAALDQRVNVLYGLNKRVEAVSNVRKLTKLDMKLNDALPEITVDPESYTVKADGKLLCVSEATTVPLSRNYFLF

Consider `CC(=O)NO` [AHA, acetohydroxamic acid, reference compound], for which the zone of inhibition – broadly, the size of the clear area around the sample on an inoculated plate – in test [1] amounted to 9.00 ± 0.50 mm. The MIC (usually the lowest concentration that inhibits growth of the organism) in test [2] is 1000 µg/mL (≈ 13300 µM).
With `O=C1O[C@H]([C@@H](O)CO)C(O)=C1O` [Ascorbic acid, ascorbic acid, reference compound], in test [3], the IC50 (in general, the concentration needed to halve the response being measured) was 8.59 ± 0.004 µM.
Regarding `O=C(/C=C/c1ccc(O)c(O)c1)O[C@@H]1C[C@](O)(C(=O)Nc2ccc([N+](=O)[O-])cc2Cl)CC(O)C1O` (stereo partly drawn) [C4a, (1R, 5S)-5-((2-chloro-4-nitrophenyl)carbamoyl)-2,3,5-trihydroxycyclohexyl (2E)-3-(3,4-dihydroxyphenyl)prop-2-enoate], the mode of inhibition entry on Jack Bean Urease [4] is reported as “competitive type of Inhibition”. The compound further registered a zone of inhibition in test [1] of 10.00 ± 0.00 mm. Further, the MIC in test [2] (Helicobacter pylori, DSM4867, read-out: MIC) turned out to be 500 µg/mL (≈ 983 µM). The IC50 against Jack Bean Urease [5] is 11.01 ± 0.013 µM; in test [3], 5.1 ± 0.018 µM.
Consider `O=C(/C=C/c1ccc(O)c(O)c1)O[C@@H]1C[C@](O)(C(=O)Nc2ccc(Cl)cc2[N+](=O)[O-])CC(O)C1O` (stereo partly drawn) [C4b, (1R, 5S)-5-((4-chloro-2-nitrophenyl)carbamoyl)-2,3,5-trihydroxycyclohexyl (2E)-3-(3,4-dihydroxyphenyl)prop-2-enoate], for which the IC50 was determined as 15.86 ± 0.004 µM against Jack Bean Urease [5] and 6.01 ± 0.005 µM in test [3].
On the same counts, the results for `O=C(/C=C/c1ccc(O)c(O)c1)O[C@@H]1C[C@](O)(C(=O)Nc2ccc(Br)cc2)CC(O)C1O` (stereo partly drawn) [C4c, (1R, 5S)-5-((4-bromophenyl)carbamoyl)-2,3,5-trihydroxycyclohexyl (2E)-3-(3,4-dihydroxyphenyl)prop-2-enoate] are 22.02 ± 0.027 µM and 8.48 ± 0.026 µM.
The corresponding values for `O=C(/C=C/c1ccc(O)c(O)c1)O[C@@H]1C[C@](O)(C(=O)Nc2cccc([N+](=O)[O-])c2)CC(O)C1O` (stereo partly drawn) [C4d, (1R, 5S)-2,3,5-trihydroxy-5-((3-nitrophenyl)carbamoyl)cyclohexyl (2E)-3-(3,4-dihydroxyphenyl)prop-2-enoate] are 13.8 ± 0.041 µM and 5.34 ± 0.007 µM.
The corresponding values for `COc1cccc(NC(=O)[C@]2(O)CC(O)C(O)[C@H](OC(=O)/C=C/c3ccc(O)c(O)c3)C2)c1` (stereo partly drawn) [C4e, (1R, 5S)-2,3,5-trihydroxy-5-((3-methoxyphenyl)carbamoyl) cyclohexyl (2E)-3-(3,4-dihydroxyphenyl)prop-2-enoate] are 20.6 ± 0.001 µM and 6.85 ± 0.02 µM.
For the compound `COc1ccc(NC(=O)[C@]2(O)CC(O)C(O)[C@H](OC(=O)/C=C/c3ccc(O)c(O)c3)C2)cc1` (stereo partly drawn) [C4f, (1R, 5S)-2,3,5-trihydroxy-5-((4-methoxyphenyl)carbamoyl)cyclohexyl (2E)-3-(3,4-dihydroxyphenyl)prop-2-enoate], the half-inhibitory concentration (IC50) against Jack Bean Urease [5] stood at 21.83 ± 0.009 µM; in test [3], 7.89 ± 0.006 µM.
Turning to `Cc1ccccc1NC(=O)[C@]1(O)CC(O)C(O)[C@H](OC(=O)/C=C/c2ccc(O)c(O)c2)C1` (stereo partly drawn) [C4g, (1R, 5S)-2,3,5-trihydroxy-5-((2-methylphenyl)carbamoyl)cyclohexyl (2E)-3-(3,4-dihydroxyphenyl)prop-2-enoate], the IC50 is 21.5 ± 0.032 µM against Jack Bean Urease [5] and 7.75 ± 0.011 µM in test [3].
On the same counts, the results for `O=C(/C=C/c1ccc(O)c(O)c1)O[C@@H]1C[C@](O)(C(=O)Nc2ccccc2F)CC(O)C1O` (stereo partly drawn) [C4h, (1R, 5S)-5-((2-fluorophenyl)carbamoyl)-2,3,5-trihydroxycyclohexyl (2E)-3-(3,4-dihydroxyphenyl)prop-2-enoate] are 21.24 ± 0.016 µM and 7.23 ± 0.008 µM.
Compound `O=C(/C=C/c1ccc(O)c(O)c1)O[C@@H]1C[C@](O)(C(=O)O)C[C@@H](O)[C@H]1O` [CHLG, chlorogenic acid, reference compound] registered an IC50 at Jack Bean Urease [5] of 22.68 ± 0.006 µM.
Regarding `NC(N)=S` [Thiourea, thiourea, reference compound], the IC50 on Jack Bean Urease [5] (jack bean urease, indophenol method, pH 8.2, mean SEM, read-out: IC50 (µM) urease inhibition) is 22.8 ± 0.011 µM.
